Data as given in patent US20250228855A1, “PYRAZINAMIDE COMPOUNDS” (The General Hospital Corporation, priority 2022, published 2025).
pEC50, pIC50, pKd: −log10 of the molar value. Structures can show the parent of a compound that is named as a salt. Where two headings read alike, the source gives them in different places.

Tests used:
[1] = system: halofuginone-induced (HFG-induced) P. falciparum; assay: P. falciparum asexual blood stage growth assay, halofuginone-induced parasites; conditions: Plasmodium falciparum; for EC50: DD2, 72 h, read-out: Dd2 (EC50 [nM]) Halofuginone-induced; for pEC50: read-out: EC50 in halofuginone-induced parasites
Protocol: (§3) Asexual blood stage (ABS) P. falciparum parasites were treated with test compounds at varying concentrations for 72 h, followed by quantification of parasite growth by SYBR Green staining.
(§4) P. falciparum Asexual Blood Stage Growth Assay: This assay was performed as previously described.

PfcProRS = PfcProRS (Plasmodium falciparum, UniProt Q8I5R7); assay: TR-FRET ligand displacement assay with tracer MAT379, PfcProRS; format: binding; conditions: for pKd: read-out: KD for PfcProRS
PfcProRS, sequence (Q8I5R7 whole entry): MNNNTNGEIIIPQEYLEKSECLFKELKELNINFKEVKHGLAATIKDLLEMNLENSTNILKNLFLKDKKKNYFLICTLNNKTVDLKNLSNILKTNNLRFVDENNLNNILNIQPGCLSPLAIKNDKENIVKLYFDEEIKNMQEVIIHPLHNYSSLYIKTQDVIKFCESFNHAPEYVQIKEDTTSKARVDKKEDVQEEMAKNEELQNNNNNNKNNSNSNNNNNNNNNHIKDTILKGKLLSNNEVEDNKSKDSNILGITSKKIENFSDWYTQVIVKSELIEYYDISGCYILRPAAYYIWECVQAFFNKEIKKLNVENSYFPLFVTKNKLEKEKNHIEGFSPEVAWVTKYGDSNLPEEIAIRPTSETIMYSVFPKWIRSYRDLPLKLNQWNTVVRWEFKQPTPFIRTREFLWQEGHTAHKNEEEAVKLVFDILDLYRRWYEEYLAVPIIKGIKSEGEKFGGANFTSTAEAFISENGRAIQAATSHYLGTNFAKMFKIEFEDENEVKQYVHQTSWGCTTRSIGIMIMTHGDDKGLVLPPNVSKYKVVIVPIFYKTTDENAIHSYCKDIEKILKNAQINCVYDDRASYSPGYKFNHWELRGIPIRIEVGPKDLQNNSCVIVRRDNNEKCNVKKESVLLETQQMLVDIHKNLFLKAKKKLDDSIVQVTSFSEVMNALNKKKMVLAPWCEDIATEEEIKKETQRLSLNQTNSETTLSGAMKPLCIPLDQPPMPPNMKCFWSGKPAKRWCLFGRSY

P. falciparum Dd2-2D4 = assay: P. falciparum asexual blood stage growth assay, wild-type Dd2-2D4; conditions: Plasmodium falciparum; for EC50: DD2, 72 h, read-out: Dd2 (EC50 [nM]) wt; for pEC50: DD2, read-out: EC50 against Dd2-2D4 wildtype parasites
Protocol: as §3, §4

HsProRS = target: T1, HsProRS (Homo sapiens, UniProt P07814); assay: TR-FRET ligand displacement assay with tracer MAT379, HsProRS; format: binding
T1 sequence (P07814 1007-1512 limits assumed): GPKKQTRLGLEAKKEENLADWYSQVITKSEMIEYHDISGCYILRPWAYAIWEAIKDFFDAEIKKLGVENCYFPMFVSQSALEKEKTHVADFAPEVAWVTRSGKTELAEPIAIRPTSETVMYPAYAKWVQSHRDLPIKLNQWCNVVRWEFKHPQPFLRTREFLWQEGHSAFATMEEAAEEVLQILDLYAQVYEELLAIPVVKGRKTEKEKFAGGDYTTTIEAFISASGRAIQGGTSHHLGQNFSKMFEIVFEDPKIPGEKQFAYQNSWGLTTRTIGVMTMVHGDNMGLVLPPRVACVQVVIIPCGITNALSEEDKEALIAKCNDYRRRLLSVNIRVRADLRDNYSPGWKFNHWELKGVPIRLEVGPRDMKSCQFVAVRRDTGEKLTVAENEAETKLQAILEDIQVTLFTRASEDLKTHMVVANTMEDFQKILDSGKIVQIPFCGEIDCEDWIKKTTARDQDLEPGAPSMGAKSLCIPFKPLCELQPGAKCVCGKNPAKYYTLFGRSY

[2] = system: luciferase-expressing P. berghei ANKA sporozoites; assay: P. berghei liver stage assay in HuH7 cells; format: cell-based; conditions: Plasmodium berghei, Huh-7; HuH7 hepatocytes, ~44 hpi, luminescence
Protocol: (§1) Halofuginone and derivatives are active against liver stage Plasmodium parasites. NCP26 and MAT436 were evaluated in a tissue culture-based P. berghei liver stage model. Specifically, various test compounds were added in dose-response to human hepatocytes (HuH7) followed by infection with luciferase-expressing P. berghei ANKA sporozoites, which enabled quantification of parasite load by luminescence. In parallel, host cell viability was also assessed to provide an estimate of cellular selectivity.
(§2) P. berghei Liver Stage and HuH7 Host Hepatocyte Growth Assay: HuH7 cells (Sigma) were cultured in DMEM+L-Glutamine (Gibco) supplemented with 10% (v/v) heat-inactivated FBS (Sigma) and 1% (v/v) antibiotic/antimycotic (Sigma). Hepatocyte cultures were maintained in a standard tissue culture incubator at 37° C. Anopheles mosquitoes infected with luciferase-expressing P. berghei ANKA sporozoites were obtained from the Sporocore at the University of Georgia. […] At ˜44 hpi, HuH7 cell viability and P. berghei parasite load was assessed using CellTiter-Fluor (Promega) and Bright-Glo (Promega), respectively, using an Envision plate reader. Relative fluorescence and luminescence signal intensities were normalized to the negative control, 1% DMSO. EC50 values were determined using GraphPad Prism through fitting data to a dose response curve. […]

HuH7 cells = assay: HuH7 host hepatocyte viability assay; format: cell-based; conditions: Homo sapiens, Huh-7; host cell viability
Protocol: as §1, §2

[3] = Storage stability of MAT436·HBr (LC-MS); format: physicochemical
[4] = PfcProRS (KD [nM]) +proline, 100 μM Pro
[5] = no proline, no ATP, read-out: PfcProRS (KD [nM]) −
[6] = read-out: HsProRS (KD [nM]) +proline, 100 μM Pro
[7] = no proline, no ATP, read-out: HsProRS (KD [nM]) −
[8] = PfcProRS (KD [nM]) +ATP, 500 μM ATP
[9] = read-out: HsProRS (KD [nM]) +ATP, +ATP
[10] = read-out: PfcProRS (KD [nM]) +proline, 100 μM Pro
[11] = absence of proline, read-out: KD for HsProRS

Row | SMILES | EC50 [1] [nM] | Kd (PfcProRS; [4]) [nM] | Kd (PfcProRS; [5]) [nM] | EC50 (P. falciparum Dd2-2D4) [nM] | Kd (HsProRS; [6]) [nM] | Kd (HsProRS; [7]) [nM] | pEC50 [1] | pEC50 (P. falciparum Dd2-2D4) | further results
1 | NCCCCCC(=O)NCC1CCN(C(=O)Nc2nccnc2C(=O)NC2Cc3ccccc3C2)CC1 [Compound 44, 3-(4-((6-aminohexanamido)methyl)piperidine-1-carboxamido)-N-(2,3-dihydro-1H-inden-2-yl)pyrazine-2-carboxamide dihydrochloride] | 8910 | 270 | 321 | > 10000 | 330 | – | – | – | Kd (HsProRS; read-out: HsProRS (KD [nM]) −): 1570 nM
2 | CC(C)(C)OC(=O)NCCCCCC(=O)NCC1CCN(C(=O)Nc2nccnc2C(=O)NC2Cc3ccccc3C2)CC1 [Compound 43, tert-butyl (6-(((1-((3-((2,3-dihydro-1H-inden-2-yl)carbamoyl)pyrazin-2-yl)carbamoyl)piperidin-4-yl)methyl)amino)-6-oxohexyl)carbamate] | 5090 | 320 | 375 | 3330 | 2280 | 611 | – | – | –
3 | O=C(NC1Cc2ccccc2C1)c1nccnc1NC(=O)N1CCCCC1 [NCP26 (3), N-(2,3-dihydro-1H-inden-2-yl)-3-(piperidine-1-carboxamido)pyrazine-2-carboxamide] | 120 | 2.52 | 130 | 67.4 | 0.351 | 271 | 6.92 | 7.17 | pEC50 [2]: 6.60; pEC50 (HuH7 cells): < 5.60; Kd (PfcProRS; [8]): 103 nM; Kd (HsProRS; [9]): 678 nM
4 | O=C(NC1Cc2ccccc2C1)c1nccnc1NC(=O)C1CCCCC1 [Compound 2, 3-(cyclohexanecarboxamido)-N-(2,3-dihydro-1H-inden-2-yl)pyrazine-2-carboxamide, reference compound] | 1250 | 7.17 | 437 | 595 | 2.16 | 371 | 5.90 | 6.23 | Kd (PfcProRS; [8]): 291 nM; Kd (HsProRS; [9]): 954 nM
5 | O=C(NS(=O)(=O)N1CCN(C(=O)Nc2nccnc2C(=O)NC2Cc3ccccc3C2)CC1)O[C@H]1CCCN[C@@H]1CC(O)Cn1cnc2cc(Br)c(Cl)cc2c1=O (stereo partly drawn) [MAT583, (2R,3S)-2-(3-(7-bromo-6-chloro-4-oxoquinazolin-3(4H)-yl)-2-hydroxypropyl)piperidin-3-yl ((4-((3-((2,3-dihydro-1H-inden-2-yl)carbamoyl)pyrazin-2-yl)carbamoyl)piperazin-1-yl)sulfonyl)carbamate 2,2,2-trifluoroacetate] | 7750 | 19 | 187 | 2270 | – | 687 | – | – | pKd (HsProRS): 6.82
6 | O=C(CCCCCNC(=S)Nc1ccccc1)NC1CCN(C(=O)Nc2nccnc2C(=O)NC2Cc3ccccc3C2)CC1 [MAT482] | 5540 | – | 78.3 | 2720 | 1360 | 516 | – | – | Kd (PfcProRS; [10]): 61.6 nM
7 | O=C(CCCCCNC(=S)Nc1ccccc1)NCC1CCN(C(=O)Nc2nccnc2C(=O)NC2Cc3ccccc3C2)CC1 [MAT517] | 6840 | – | 95.6 | 2680 | 1680 | 865 | – | – | Kd (PfcProRS; [10]): 80.2 nM
8 | CC1(C(=O)Nc2nccnc2C(=O)NC2Cc3ccccc3C2)CCCCC1 [Compound 4, N-(2,3-dihydro-1H-inden-2-yl)-3-(1-methylcyclohexane-1-carboxamido)pyrazine-2-carboxamide] | 540 | 3.42 | 275 | 180 | 2.55 | 221 | 6.27 | 6.74 | –
9 | O=C(C[C@H]1NCCC[C@@H]1OC(=O)NS(=O)(=O)N1CCN(C(=O)Nc2nccnc2C(=O)NC2Cc3ccccc3C2)CC1)Cn1cnc2cc(Br)c(Cl)cc2c1=O (relative stereo) [MAT436 (34), trans-2-(3-(7-bromo-6-chloro-4-oxoquinazolin-3(4H)-yl)-2-oxopropyl)piperidin-3-yl ((4-((3-((2,3-dihydro-1H-inden-2-yl)carbamoyl)pyrazin-2-yl)carbamoyl)piperazin-1-yl)sulfonyl)carbamate hydrobromide] | 251 | 0.722 | – | 6.76 | – | – | – | 8.17 | hydrolyzed at carbamate carbonyl ([3]; 10 mM stock solution in DMSO, 8 days at room temperature, LC-MS): ~36%; stability of neat compound ([3]; neat, 4° C.): stable indefinitely; pEC50 [2]: 6.73; fold affinity for PfcProRS compared to halofuginone in the absence of ATP (PfcProRS; absence of ATP): > 10^4 fold; pKd (PfcProRS; absence of ATP): 9.43
10 | O=C(NS(=O)(=O)N1CCN(C(=O)Nc2nccnc2C(=O)NC2Cc3ccccc3C2)CC1)OC[C@H]1CCCN1 [MAT459, (R)-pyrrolidin-2-ylmethyl ((4-((3-((2,3-dihydro-1H-inden-2-yl)carbamoyl)pyrazin-2-yl)carbamoyl)piperazin-1-yl)sulfonyl)carbamate] | 7080 | 552 | – | 4620 | – | – | < 5.00 | 5.34 | pKd (PfcProRS; absence of proline): 6.13; pKd (HsProRS; KD for HsProRS in presence of 100 μM proline, 100 μM proline): 6.61; pKd (HsProRS; [11]): 6.98
11 | CC(C)(C)OC(=O)N[C@H]1CC[C@@H](C(=O)Nc2nccnc2C(=O)NC2Cc3ccccc3C2)CC1 [Compound 6, tert-butyl ((1s,4s)-4-((3-((2,3-dihydro-1H-inden-2-yl)carbamoyl)pyrazin-2-yl)carbamoyl)cyclohexyl)carbamate] | 7930 | 26.3 | 31.5 | 508 | 82.7 | 56.8 | – | – | –
12 | Nc1ncnc2c1ncn2[C@@H]1O[C@H](CNS(=O)(=O)NC(=O)OCCn2cnc3ccccc3c2=O)[C@@H](O)[C@H]1O [MAT511, 2-(4-oxoquinazolin-3(4H)-yl)ethyl (N-(((2R,3S,4R,5R)-5-(6-amino-9H-purin-9-yl)-3,4-dihydroxytetrahydrofuran-2-yl)methyl)sulfamoyl)carbamate] | 52.2 | 1810 | > 2860 | 76.5 | – | > 8720 | – | – | pKd (PfcProRS; absence of proline): < 5.00; pIC50 (P. falciparum Dd2-2D4; DD2, read-out: IC50 for Dd2-2D4): 7.13; pKd (HsProRS): < 5.29; pKd (HsProRS; [11]): < 5.00
13 | O=C(NC1Cc2ccccc2C1)c1nccnc1NC(=O)C1CCC1 [Compound 20, 3-(cyclobutanecarboxamido)-N-(2,3-dihydro-1H-inden-2-yl)pyrazine-2-carboxamide] | 6010 | 100 | 1260 | 3740 | 13.2 | 738 | – | – | –
